The values that follow come from patent publication US12264204B2, “Peptide for improving memory and preventing or alleviating cognitive dysfunction, composition comprising the same, and method for producing the same” (NATURESENSE CO., LTD., priority 2019, dated 2025).

The subject of the assay is Sprague-Dawley rats. The assay is described as follows: Delayed alternation test (T-maze) for cognitive function improvement. The assay is classed as in vivo, rat. The following applies: oral, 100 mg/ml solution; for effect of improving cognitive function and memory (T-maze performance): delay of 5 seconds between trials, 9 days training; for effect of improving cognitive function and memory in the early stage of administration: delay of 5 seconds, early stage of 9-day training. As for the experimental part:
Experimental animals were white male Sprague-Dawley rats (140 to 180 g, Daehan Biolink Co., Ltd.). These rats were housed in cages (4 rats per cage) in a constant environment (temperature: 25±1° C., and relative humidity: 60±10%) for one week and allowed to access water ad libitum. At this time, the feed was fed in a limited manner so that 80% of the body weight was kept. In this experiment, a total of 50 rats were used. The rats were adapted to the maze for 5 minutes a day for 3 days before training.
In the first trial, the animals were adapted to the start arm. The first trial is a “forced-choice trial”, in which one arm was blocked with the door and when the animal entered the other arm, the rear was blocked with the door. The animal was considered as entering the arm when all four paws passed through the entrance. The animal was allowed to eat feed in the corresponding arm for 60 seconds. The next trials were “free-choice trials”, in which the animal was free to choose the direction of the arm (left or right) starting from the start arm. The animal was made to be able to eat food as a reward only when it entered the arm that entered in the previous trial and the opposite arm.
The trials were performed with delays of 5 seconds and 20 seconds, and the cut-off time of each trial was set to 60 seconds. The number of times the animal entered the forced-choice arm and the time taken to enter the arm were measured. The same procedure was performed for 9 days with 10 trials per day, followed by assessment.
The silk peptides NF1, NF2 and TF1 to TF9 were prepared into solutions, each containing 100 mg/ml of each peptide, and were administered orally. All the samples were dissolved in distilled water and administered orally.

Where no end group is shown, it is not given here.

Regarding “Ile-Gly-Val-Ala-Tyr (IGVAY; printed: Ile-Gly-Val-Ala-Tyr) [Peptide F2]”, the “effect of improving cognitive function and memory (T-maze performance)” value (“effect … (T-maze performance)” for short) is “high effect of improving cognitive function and memory, compared to P2-2”; the “effect of improving cognitive function and memory in the early stage of administration” value (“effect … of administration” below) is “high activity of improving cognitive function and memory in an early stage, compared to P2-2”.

As for “Tyr-Gly-Ile-Ala (YGIA; printed: Tyr-Gly-Ile-Ala) [Peptide P1-6]”, the “effect … (T-maze performance)” value was “increased effect of improving cognitive function and memory”; the “effect … of administration” value is “significantly increased effect of improving cognitive function and memory in the early stage of administration”.

Regarding “Tyr-Gly-Gly-Tyr (YGGY; printed: Tyr-Gly-Gly-Tyr) [Peptide P4-2]”, the “effect … (T-maze performance)” value is “increased effect of improving cognitive function and memory”.

“Ile-Gly-Val-Ala-Gly (IGVAG; printed: Ile-Gly-Val-Ala-Gly) [Peptide F3]”: the “effect … (T-maze performance)” value is “high effect of improving cognitive function and memory, compared to P2-2”; the “effect … of administration” value is “high activity of improving cognitive function and memory in an early stage, compared to P2-2”.

Turning to “Ile-Gly-Val-Ala-Thr (IGVAT; printed: Ile-Gly-Val-Ala-Thr) [Peptide F1]”, the “effect … (T-maze performance)” value is “high effect of improving cognitive function and memory, compared to P2-2”; the “effect … of administration” value is “high activity of improving cognitive function and memory in an early stage, compared to P2-2”.

In the case of YGGYGI [Peptide P5-1], the “effect … (T-maze performance)” value is “clearly better effect of improving cognitive function and memory than P4-2”; the “effect … of administration” value was “excellent activity of improving cognitive function and memory in the early stage”.

As for “Tyr-Gly-Val-Ile (YGVI; printed: Tyr-Gly-Val-Ile) [Peptide P1-5]”, the “effect … (T-maze performance)” value is “increased effect of improving cognitive function and memory”.

For the substance “Ala-Gly-Gly-Ala (AGGA; printed: Ala-Gly-Gly-Ala) [Peptide P4-1]”, the “effect … of administration” value was “significantly increased effect of improving cognitive function and memory in the early stage of administration”.

As for “Ile-Gly-Val-Ala (IGVA; printed: Ile-Gly-Val-Ala) [Peptide P2-2]”, the “effect … (T-maze performance)” value is recorded as “relatively better”.

Turning to “Ile-Gly-Tyr-Val (IGYV; printed: Ile-Gly-Tyr-Val) [Peptide P2-1]”, the “effect … (T-maze performance)” value is listed as “relatively low”.

For “Tyr-Gly-Ala-Ala (YGAA; printed: Tyr-Gly-Ala-Ala) [Peptide P1-3]”, the “effect … (T-maze performance)” value was “increased effect of improving cognitive function and memory”.

“Ile-Gly-Gln-Gly (IGQG; printed: Ile-Gly-Gln-Gly) [Peptide P2-4]”: the “effect … (T-maze performance)” value was “relatively low”.

Turning to “Tyr-Gly-Gly-Ala (YGGA; printed: Tyr-Gly-Gly-Ala) [Peptide P1-2]”, the “effect … (T-maze performance)” value is “increased effect of improving cognitive function and memory”.

Consider “Ile-Gly-Ala-Tyr (IGAY; printed: Ile-Gly-Ala-Tyr) [Peptide P2-3]”, for which the “effect … (T-maze performance)” value is recorded as “relatively low”.
